From US6441195B1, “Substituted sulphonylamino(thio) carbonyl compounds” (Bayer Aktiengesellschaft, priority 1995, dated 2002)

What was measured:
Type in all cases: in vivo
Ambrosia = experiment: Pre-emergence test/Greenhouse, Ambrosia; conditions: after three weeks
Summary of the method: (§1)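 Pre-emergence soil drench ~24 h after sowing; compound in solvent/emulsifier diluted with water, constant water per area, dose defined by rate per unit area. Read-out at 3 wk: % damage vs untreated control, 0% = no action.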

Maize = experiment: Pre-emergence test/Greenhouse, Maize; conditions: in vivo
Summary of the method: as §1

Poa = experiment: Pre-emergence test/Greenhouse, Poa; conditions: after three weeks
Summary of the method: as §1

Matricaria [1] = experiment: Pre-emergence test/Greenhouse, Matricaria; conditions: after three weeks
Summary of the method: as §1

Soya beans = experiment: Pre-emergence test/Greenhouse, Soya beans; conditions: in vivo
Summary of the method: as §1

weeds [2] = experiment: Post-emergence test (greenhouse), activity against weeds; conditions: in words
Description: (§2) Solvent: 5 parts by weight of acetone
(§3) Emulsifier: 1 part by weight of alkylaryl polyglycol ether
(§4) To produce a suitable preparation of active compound, 1 part by weight of active compound is mixed with the stated amount of solvent, the stated amount of emulsifier is added and the concentrate is diluted with water to the desired concentration.
(§5) Test plants which have a height of 5-15 cm are sprayed with the preparation of the active compound in such a way as to apply the particular amounts of active compound desired per unit area. The concentration of the spray liquor is chosen so that the particular amounts of active compound desired are applied in 2000 l of water/ha.
(§6) After three weeks, the degree of damage to the plants is rated in % damage in comparison to the development of the untreated control.
(§7) 0%=no action (like untreated control)

Echinochloa = experiment: Post-emergence test/greenhouse, Echinochloa; conditions: greenhouse, after three weeks
Description: as §2, §3, §4, §5, §6, §7

Solanum = experiment: Pre-emergence test/Greenhouse, Solanum; conditions: after three weeks
Summary of the method: as §1

weeds [3] = experiment: Pre-emergence test (greenhouse), activity against weeds; conditions: in words
Summary of the method: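 Three weeks after treatment, % damage relative to untreated plants is scored, 0% meaning no effect. Seeds in normal soil received, roughly one day post-sowing, an aqueous dilution of an acetone/emulsifier concentrate, with the rate per unit area, not concentration, being the relevant dose.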

Lolium [4] = experiment: Post-emergence test/greenhouse, Lolium; conditions: greenhouse, 60 g of ai./ha, after three weeks
Description: as §2, §3, §4, §5, §6, §7

Sorghum [5] = experiment: Pre-emergence test/Greenhouse, Sorghum; conditions: after three weeks
Summary of the method: as §1

Digitaria = experiment: Post-emergence test/greenhouse, Digitaria; conditions: greenhouse, after three weeks
Description: as §2, §3, §4, §5, §6, §7

Amaranthus = experiment: Post-emergence test/greenhouse, Amaranthus; conditions: greenhouse, after three weeks
Description: as §2, §3, §4, §5, §6, §7

Gallium = experiment: Post-emergence test/greenhouse, Gallium; conditions: greenhouse, after three weeks
Description: as §2, §3, §4, §5, §6, §7

Stellaria = experiment: Post-emergence test/greenhouse, Stellaria; conditions: greenhouse, after three weeks
Description: as §2, §3, §4, §5, §6, §7

Sorghum [6] = experiment: Post-emergence test/greenhouse, Sorghum; conditions: greenhouse, after three weeks
Description: as §2, §3, §4, §5, §6, §7

Matricaria [7] = experiment: Post-emergence test/greenhouse, Matricaria; conditions: greenhouse, after three weeks
Description: as §2, §3, §4, §5, §6, §7

Lolium [8] = experiment: Pre-emergence test/Greenhouse, Lolium; conditions: after three weeks
Summary of the method: as §1

SMILES | degree of damage to the plants (% damage vs untreated control), Ambrosia (Ambrosia; 8 g of ai./ha) [%] | degree of damage to the plants (% damage vs untreated control), Maize (Maize) [%] | degree of damage to the plants (% damage vs untreated control), Poa (Poa; 8 g of ai./ha) [%] | degree of damage to the plants (% damage vs untreated control), Matricaria (Matricaria [1]; 8 g of ai./ha) [%] | degree of damage to the plants (% damage vs untreated control), Soya beans (Soya beans) [%] | activity against weeds (weeds [2]) | degree of damage, Echinochloa (Echinochloa; 60 g of ai./ha) [%] | degree of damage to the plants (% damage vs untreated control), Solanum (Solanum; 8 g of ai./ha) [%] | activity against weeds (weeds [3]) | degree of damage, Lolium (Lolium [4]) [%] | degree of damage to the plants (% damage vs untreated control), Sorghum (Sorghum [5]; 8 g of ai./ha) [%] | degree of damage, Digitaria (Digitaria; 60 g of ai./ha) [%] | degree of damage, Amaranthus (Amaranthus; 60 g of ai./ha) [%] | degree of damage, Gallium (Gallium; 60 g of ai./ha) [%] | degree of damage, Stellaria (Stellaria; 60 g of ai./ha) [%] | degree of damage, Sorghum (Sorghum [6]; 60 g of ai./ha) [%] | degree of damage, Matricaria (Matricaria [7]; 60 g of ai./ha) [%] | degree of damage to the plants (% damage vs untreated control), Ambrosia (Ambrosia; 60 g of ai./ha) [%] | degree of damage to the plants (% damage vs untreated control), Poa (Poa; 60 g of ai./ha) [%] | degree of damage to the plants (% damage vs untreated control), Matricaria (Matricaria [1]; 60 g of ai./ha) [%] | also measured
CCCOc1nn(C(=O)NS(=O)(=O)c2c(C)cccc2C(=O)OC)c(=O)n1C1CC1 [Example 165] | 80 | 0 | 90 | 90 | 10 | very strong activity against weeds | 80 | 80 | very strong activity against weeds | 50 | 70 | 50 | 95 | 95 | 95 | 90 | 95 | – | – | – | –
COC(=O)c1cccc(C)c1S(=O)(=O)NC(=O)n1nc(OC)n(C2CC2)c1=O [Example 164] | 100 | 20 | 95 | 70 | 0 | very strong activity against weeds | 80 | 95 | very strong activity against weeds | 70 | 90 | 60 | 100 | 90 | 95 | 95 | 100 | – | – | – | degree of damage to the plants (% damage vs untreated control), Lolium (Lolium [8]; 8 g of ai./ha): 95%
CCCOc1nn(C(=O)NS(=O)(=O)c2c(C)cccc2C(=O)OC)c(=O)n1C [Example 140] | – | – | – | – | 10 | very strong activity against weeds | – | – | very strong activity against weeds | – | – | – | – | – | – | – | – | – | – | – | degree of damage to the plants (% damage vs untreated control), Ambrosia (Ambrosia; 30 g of ai./ha): 80%; degree of damage to the plants (% damage vs untreated control), Poa (Poa; 30 g of ai./ha): 95%; degree of damage to the plants (% damage vs untreated control), Matricaria (Matricaria [1]; 30 g of ai./ha): 80%; degree of damage, Echinochloa (Echinochloa; 250 g of ai./ha): 90%; degree of damage to the plants (% damage vs untreated control), Solanum (Solanum; 30 g of ai./ha): 95%; degree of damage to the plants (% damage vs untreated control), Sorghum (Sorghum [5]; 30 g of ai./ha): 95%; degree of damage, Digitaria (Digitaria; 250 g of ai./ha): 95%; degree of damage, Amaranthus (Amaranthus; 250 g of ai./ha): 100%; degree of damage, Gallium (Gallium; 250 g of ai./ha): 95%; degree of damage, Stellaria (Stellaria; 250 g of ai./ha): 70%; degree of damage, Sorghum (Sorghum [6]; 250 g of ai./ha): 95%; degree of damage, Matricaria (Matricaria [7]; 250 g of ai./ha): 90%
CCOC(=O)c1scc(C)c1S(=O)(=O)NC(=O)n1nc(OCC)n(C2CC2)c1=O [Example 63] | – | 10 | – | – | – | very strong activity against weeds | 90 | – | very strong activity against weeds | 70 | – | 50 | 100 | 90 | 100 | 80 | 95 | 100 | 95 | 100 | degree of damage to the plants (% damage vs untreated control), Solanum (Solanum; 60 g of ai./ha): 100%; degree of damage to the plants (% damage vs untreated control), Lolium (Lolium [8]; 60 g of ai./ha): 100%; degree of damage to the plants (% damage vs untreated control), Sorghum (Sorghum [5]; 60 g of ai./ha): 80%
COC(=O)c1cccc(C)c1S(=O)(=O)NC(=O)n1nc(OC)n(C)c1=O [Example 162] | – | – | – | – | 0 | very strong activity against weeds | 80 | – | very strong activity against weeds | 90 | – | 70 | – | – | 90 | 80 | 60 | 80 | 95 | 95 | degree of damage to the plants (% damage vs untreated control), Solanum (Solanum; 60 g of ai./ha): 95%; degree of damage to the plants (% damage vs untreated control), Lolium (Lolium [8]; 60 g of ai./ha): 95%; degree of damage to the plants (% damage vs untreated control), Sorghum (Sorghum [5]; 60 g of ai./ha): 90%
